For 37 compounds, IC50, solubility and pKa results are on record in ChEMBL document CHEMBL1125071, “Quinazoline antifolate thymidylate synthase inhibitors: alkyl, substituted alkyl, and aryl substituents in the C2 position” (J Med Chem, 1990).

Converted amounts (≈) assume the structure as drawn. Where only a bound is given, the exact number is not on record here.

The subject of one data set is L1210. Kind of data set: Concentration required to inhibit 50 percent growth of L1210 mouse leukemia cells. The class given is functional, cell-based.
Data set [1] in a line: Solubility in […] M aqueous NaH2PO4 buffer at pH 7.0 and 25 degree C. The class given is physicochemical. The note with it: 0.92 M aqueous NaH2PO4 buffer.
The next data set addresses Thymidylate synthase (Mus musculus, UniProt P07607). The data set can be described thus: Concentration required for in vitro inhibition of thymidylate synthase.
The nature of data set [2]: pKa of nitrogen -1(N1) of the compound. The class given is physicochemical.
The nature of data set [3]: pKa of nitrogen -3(N3) of the compound. The class given is physicochemical.
Data set [4] is described as follows: pKa of nitrogen -1(N1) of the compound; too low to measure accurately. The data set is classed as physicochemical.

Thymidylate synthase, sequence (P07607 whole entry): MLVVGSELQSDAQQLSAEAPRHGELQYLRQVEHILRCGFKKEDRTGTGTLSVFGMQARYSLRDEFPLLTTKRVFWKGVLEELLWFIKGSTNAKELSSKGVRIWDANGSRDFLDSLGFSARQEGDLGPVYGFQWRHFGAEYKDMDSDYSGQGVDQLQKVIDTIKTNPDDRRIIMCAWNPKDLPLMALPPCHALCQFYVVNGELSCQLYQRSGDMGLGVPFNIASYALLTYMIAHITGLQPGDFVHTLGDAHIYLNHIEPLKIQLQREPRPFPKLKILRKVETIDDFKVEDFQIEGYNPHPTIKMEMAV

By IC50 is commonly meant the midpoint of a concentration-inhibition curve. Read a high IC50 as weaker potency. Regarding `C#CCN(Cc1ccc2nc(CSc3ncccn3)[nH]c(=O)c2c1)c1ccc(C(=O)N[C@@H](CCC(=O)O)C(=O)O)cc1`, 100 µM corresponded to half-maximal inhibition with L1210 (IC50).
The term solubility denotes how much of the substance goes into solution per volume. A low value points to a poorly soluble substance. Regarding `C#CCN(Cc1ccc2nc(C)[nH]c(=O)c2c1)c1ccc(C(=O)N[C@@H](CCC(=O)O)C(=O)O)cc1`, it took 0.09 µM to reach half-maximal inhibition in the data set on L1210 (IC50). In data set [1], the concentration in solution (solubility) came to 3200 µg/mL (≈ 6.72 mM).
`C#CCN(Cc1ccc2nc(CNC(C)=O)[nH]c(=O)c2c1)c1ccc(C(=O)N[C@@H](CCC(=O)O)C(=O)O)cc1`: 125 µM corresponded to half-maximal inhibition in the data set on L1210 (IC50).
For the compound `Cc1nc2ccc(CN(C)c3ccc(C(=O)N[C@@H](CCC(=O)O)C(=O)O)cc3)cc2c(=O)[nH]1`, the IC50 against Thymidylate synthase stood at 0.3 µM; in the data set with L1210, 0.11 µM.
As for `Cc1nc2ccc(CNc3ccc(C(=O)N[C@@H](CCC(=O)O)C(=O)O)cc3)cc2c(=O)[nH]1`, the IC50 came out at 4.5 µM against Thymidylate synthase and 0.07 µM in the data set with L1210.
For `O=C(O)CC[C@H](NC(=O)c1ccc(N(CCF)Cc2ccc3nc(CF)[nH]c(=O)c3c2)cc1)C(=O)O`, in the data set on L1210, half-maximal inhibition (IC50) required 1.2 µM. That is a single-digit micromolar value.
On to `C=CCN(Cc1ccc2nc(C)[nH]c(=O)c2c1)c1ccc(C(=O)N[C@@H](CCC(=O)O)C(=O)O)cc1`, for which the IC50 against Thymidylate synthase amounted to 0.48 µM; with L1210, 0.17 µM.
The corresponding values for `CC(=O)CN(Cc1ccc2nc(C)[nH]c(=O)c2c1)c1ccc(C(=O)N[C@@H](CCC(=O)O)C(=O)O)cc1` are 25 µM and 1.2 µM.
As to `C#CCN(Cc1ccc2nc(CC)[nH]c(=O)c2c1)c1ccc(C(=O)N[C@@H](CCC(=O)O)C(=O)O)cc1`, in the data set on L1210, 2.5 µM corresponded to half-maximal inhibition (IC50).
Regarding `Cc1nc2ccc(CN(CCCO)c3ccc(C(=O)N[C@@H](CCC(=O)O)C(=O)O)cc3)cc2c(=O)[nH]1`, the IC50 came to 0.54 µM against Thymidylate synthase and 1.24 µM in the data set on L1210.
By pKa is commonly meant the negative logarithm of the acid dissociation constant. Read a high pKa as a group that holds its proton tightly. As for `Cc1ccc2nc(C)nc(O)c2c1`, the pKa in data set [2] was 3.5; in data set [3], 10.2.
Take `Cc1nc2ccc(CN(CCF)c3ccc(C(=O)N[C@@H](CCC(=O)O)C(=O)O)cc3)cc2c(=O)[nH]1`: the IC50 at Thymidylate synthase was 0.24 µM; in the data set on L1210 it was 0.4 µM.
`COCCN(Cc1ccc2nc(C)[nH]c(=O)c2c1)c1ccc(C(=O)N[C@@H](CCC(=O)O)C(=O)O)cc1`: the IC50 at Thymidylate synthase was 16.3 µM; with L1210, 40 µM.
`O=C(O)CC[C@H](NC(=O)c1ccc(N(CCF)Cc2ccc3nc(CO)[nH]c(=O)c3c2)cc1)C(=O)O`: the IC50 in the data set with L1210 amounted to 20 µM.
Still for that read-out and setting: next, `C=CCN(Cc1ccc2nc(CO)[nH]c(=O)c2c1)c1ccc(C(=O)N[C@@H](CCC(=O)O)C(=O)O)cc1`: 6.6 µM.
Consider `CN(Cc1ccc2nc(CF)[nH]c(=O)c2c1)c1ccc(C(=O)N[C@@H](CCC(=O)O)C(=O)O)cc1`, for which the half-maximal inhibitory concentration (IC50) was determined as 2.92 µM against Thymidylate synthase and 0.003 µM with L1210.
As to `C#CCN(Cc1ccc2nc(C(F)(F)F)[nH]c(=O)c2c1)c1ccc(C(=O)N[C@@H](CCC(=O)O)C(=O)O)cc1`, the IC50 in the data set with L1210 is > 100 µM.
As for `Cc1nc2ccc(CN(CCS)c3ccc(C(=O)N[C@@H](CCC(=O)O)C(=O)O)cc3)cc2c(=O)[nH]1`, the IC50 against Thymidylate synthase is 1.76 µM; with L1210 it was > 100 µM.
`CCN(Cc1ccc2nc(CF)[nH]c(=O)c2c1)c1ccc(C(=O)N[C@@H](CCC(=O)O)C(=O)O)cc1` yielded an IC50 in the data set on L1210 of 0.7 µM.
Still for that read-out and setting: next, `C#CCN(Cc1ccc2nc(-c3ccccc3)[nH]c(=O)c2c1)c1ccc(C(=O)N[C@@H](CCC(=O)O)C(=O)O)cc1`: > 100 µM.
For the compound `Cc1nc2ccc(CN(CCO)c3ccc(C(=O)N[C@@H](CCC(=O)O)C(=O)O)cc3)cc2c(=O)[nH]1`, the IC50 against Thymidylate synthase was determined as 0.5 µM; in the data set on L1210 it was 0.24 µM.
`C#CCN(Cc1ccc2nc(N)[nH]c(=O)c2c1)c1ccc(C(=O)N[C@@H](CCC(=O)O)C(=O)O)cc1` showed an IC50 in the data set with L1210 of 3.4 µM. Besides, the concentration in solution in data set [1] (solubility) was 70 µg/mL (≈ 0.147 mM).
In the data set on L1210, `C#CCN(Cc1ccc2nc[nH]c(=O)c2c1)c1ccc(C(=O)N[C@@H](CCC(=O)O)C(=O)O)cc1` gave an IC50 of 0.4 µM.
On to `Cc1ccc2nc(C(F)F)nc(O)c2c1`, for which the values for the pKa in data set [4] and in data set [3] were < 2 and 7.2, respectively.
For `CCN(Cc1ccc2nc(C)[nH]c(=O)c2c1)c1ccc(C(=O)N[C@@H](CCC(=O)O)C(=O)O)cc1`, the IC50 amounted to 0.17 µM on Thymidylate synthase and 0.36 µM in the data set on L1210.
In the data set with L1210, `C#CCN(Cc1ccc2nc(C(C)C)[nH]c(=O)c2c1)c1ccc(C(=O)N[C@@H](CCC(=O)O)C(=O)O)cc1` showed an IC50 of 48 µM. In other words, the double-digit micromolar range.
`CN(Cc1ccc2nc(CO)[nH]c(=O)c2c1)c1ccc(C(=O)N[C@@H](CCC(=O)O)C(=O)O)cc1` yielded an IC50 with L1210 of 13 µM. Compared with the last compound, the IC50 is about 3.7-fold lower.
In the data set with L1210, `C#CCN(Cc1ccc2nc(CF)[nH]c(=O)c2c1)c1ccc(C(=O)N[C@@H](CCC(=O)O)C(=O)O)cc1` yielded an IC50 of 0.37 µM.
With `Cc1ccc2nc(N)nc(O)c2c1`, the pKa is 4.2 in data set [2] and 9.4 in data set [3].
In the case of `Cc1nc2ccc(CN(CCBr)c3ccc(C(=O)N[C@@H](CCC(=O)O)C(=O)O)cc3)cc2c(=O)[nH]1`, the IC50 on Thymidylate synthase was found to be 1.3 µM; with L1210, 0.82 µM.
In the data set with L1210, `CCN(Cc1ccc2nc(CO)[nH]c(=O)c2c1)c1ccc(C(=O)N[C@@H](CCC(=O)O)C(=O)O)cc1` had an IC50 of 16 µM. In other words, the double-digit micromolar range.
Same read-out and setting: under `C#CCN(Cc1ccc2nc(C(F)F)nc(O)c2c1)c1ccc(C(=O)N[C@@H](CCC(=O)O)C(=O)O)cc1` stands 24 µM.
Consider `Cc1ccc2nc(C(F)(F)F)nc(O)c2c1`, for which the values for the pKa in data set [4] and in data set [3] were < 2 and 5.9, respectively.
The corresponding values for `Cc1ccc2nc(CF)nc(O)c2c1` are < 2 and 8.5.
Consider `CCc1nc2ccc(CNc3ccc(C(=O)N[C@@H](CCC(=O)O)C(=O)O)cc3)cc2c(=O)[nH]1`, for which the IC50 against Thymidylate synthase worked out at 20 µM; in the data set on L1210, 3.2 µM.
On to `COCCCN(Cc1ccc2nc(C)[nH]c(=O)c2c1)c1ccc(C(=O)N[C@@H](CCC(=O)O)C(=O)O)cc1`, for which the IC50 on Thymidylate synthase is 12.9 µM; in the data set with L1210 it was > 100 µM.
In turn, `O=C(O)CC[C@H](NC(=O)c1ccc(N(CCO)Cc2ccc3nc(CO)[nH]c(=O)c3c2)cc1)C(=O)O` registered an IC50 in the data set on L1210 of 14.5 µM.
